# Test results: paper PMC10006169, “A phase I trial of LXS196, a protein kinase C (PKC) inhibitor, for metastatic uveal melanoma” (British Journal of Cancer, 2023)
# System: patients with MUM
# Assay: Adverse events regardless of study drug relationship
# Type: in vivo, human
# Description: Routine safety assessments, including laboratory assessments, physical examinations, vital signs and electrocardiograms (ECGs), were conducted at regular intervals throughout the study and more frequently as needed following patient assessment by the treating physician. Adverse events (AEs) were assessed continuously according to the National Cancer Institute Common Terminology Criteria for Adverse Events (NCI-CTCAE) v4.03.
compound,measurement,setting,value
CC1(N)CCN(c2cccnc2NC(=O)c2nc(-c3ncccc3C(F)(F)F)cnc2N)CC1 [LXS196],"ALT increased, all grades",500 mg QD,3 (27.3) n (%)
same,"ALT increased, grade ≥3",500 mg QD,1 (9.1) n (%)
same,"AST increased, all grades",500 mg QD,4 (36.4) n (%)
same,"AST increased, grade ≥3",500 mg QD,1 (9.1) n (%)
same,"Abdominal pain upper, all grades",500 mg QD,2 (18.2) n (%)
same,"Abdominal pain upper, grade ≥3",500 mg QD,0 n (%)
same,"Asthenia, all grades",500 mg QD,4 (36.4) n (%)
same,"Asthenia, grade ≥3",500 mg QD,0 n (%)
same,"Blood creatinine increased, all grades",500 mg QD,0 n (%)
same,"Blood creatinine increased, grade ≥3",500 mg QD,0 n (%)
same,"Constipation, all grades",500 mg QD,2 (18.2) n (%)
same,"Constipation, grade ≥3",500 mg QD,0 n (%)
same,"Decreased appetite, all grades",500 mg QD,4 (36.4) n (%)
same,"Decreased appetite, grade ≥3",500 mg QD,0 n (%)
same,"Dermatitis acneiform, all grades",500 mg QD,1 (9.1) n (%)
same,"Dermatitis acneiform, grade ≥3",500 mg QD,0 n (%)
same,"Diarrhoea, all grades",500 mg QD,5 (45.5) n (%)
same,"Diarrhoea, grade ≥3",500 mg QD,0 n (%)
same,"Dry skin, all grades",500 mg QD,1 (9.1) n (%)
same,"Dry skin, grade ≥3",500 mg QD,0 n (%)
same,"Fatigue, all grades",500 mg QD,1 (9.1) n (%)
same,"Fatigue, grade ≥3",500 mg QD,0 n (%)
same,"Hypotension, all grades",500 mg QD,4 (36.4) n (%)
same,"Hypotension, grade ≥3",500 mg QD,3 (27.3) n (%)
same,"Nasopharyngitis, all grades",500 mg QD,0 n (%)
same,"Nasopharyngitis, grade ≥3",500 mg QD,0 n (%)
same,"Nausea, all grades",500 mg QD,8 (72.7) n (%)
same,"Nausea, grade ≥3",500 mg QD,0 n (%)
same,"Neutropenia, all grades",500 mg QD,2 (18.2) n (%)
same,"Neutropenia, grade ≥3",500 mg QD,1 (9.1) n (%)
same,"Oedema peripheral, all grades",500 mg QD,1 (9.1) n (%)
same,"Oedema peripheral, grade ≥3",500 mg QD,0 n (%)
same,"Patients with ≥1 AE, all grades",500 mg QD,10 (90.9) n (%)
same,"Patients with ≥1 AE, grade ≥3",500 mg QD,4 (36.4) n (%)
same,"Rash, all grades",500 mg QD,0 n (%)
same,"Rash, grade ≥3",500 mg QD,0 n (%)
same,"Vomiting, all grades",500 mg QD,5 (45.5) n (%)
same,"Vomiting, grade ≥3",500 mg QD,0 n (%)
same,"ALT increased, all grades",800 mg QD,0 n (%)
same,"ALT increased, grade ≥3",800 mg QD,0 n (%)
same,"AST increased, all grades",800 mg QD,0 n (%)
same,"AST increased, grade ≥3",800 mg QD,0 n (%)
same,"Abdominal pain upper, all grades",800 mg QD,0 n (%)
same,"Abdominal pain upper, grade ≥3",800 mg QD,0 n (%)
same,"Asthenia, all grades",800 mg QD,0 n (%)
same,"Asthenia, grade ≥3",800 mg QD,0 n (%)
same,"Blood creatinine increased, all grades",800 mg QD,0 n (%)
same,"Blood creatinine increased, grade ≥3",800 mg QD,0 n (%)
same,"Constipation, all grades",800 mg QD,0 n (%)
same,"Constipation, grade ≥3",800 mg QD,0 n (%)
same,"Decreased appetite, all grades",800 mg QD,0 n (%)
same,"Decreased appetite, grade ≥3",800 mg QD,0 n (%)
same,"Dermatitis acneiform, all grades",800 mg QD,0 n (%)
same,"Dermatitis acneiform, grade ≥3",800 mg QD,0 n (%)
same,"Diarrhoea, all grades",800 mg QD,1 (100) n (%)
same,"Diarrhoea, grade ≥3",800 mg QD,0 n (%)
same,"Dry skin, all grades",800 mg QD,0 n (%)
same,"Dry skin, grade ≥3",800 mg QD,0 n (%)
same,"Fatigue, all grades",800 mg QD,0 n (%)
same,"Fatigue, grade ≥3",800 mg QD,0 n (%)
same,"Hypotension, all grades",800 mg QD,1 (100) n (%)
same,"Hypotension, grade ≥3",800 mg QD,1 (100) n (%)
same,"Nasopharyngitis, all grades",800 mg QD,0 n (%)
same,"Nasopharyngitis, grade ≥3",800 mg QD,0 n (%)
same,"Nausea, all grades",800 mg QD,1 (100) n (%)
same,"Nausea, grade ≥3",800 mg QD,0 n (%)
same,"Neutropenia, all grades",800 mg QD,0 n (%)
same,"Neutropenia, grade ≥3",800 mg QD,0 n (%)
same,"Oedema peripheral, all grades",800 mg QD,0 n (%)
same,"Oedema peripheral, grade ≥3",800 mg QD,0 n (%)
same,"Patients with ≥1 AE, all grades",800 mg QD,1 (100) n (%)
same,"Patients with ≥1 AE, grade ≥3",800 mg QD,1 (100) n (%)
same,"Rash, all grades",800 mg QD,0 n (%)
same,"Rash, grade ≥3",800 mg QD,0 n (%)
same,"Vomiting, all grades",800 mg QD,0 n (%)
same,"Vomiting, grade ≥3",800 mg QD,0 n (%)
same,"ALT increased, all grades",1000 mg QD,1 (25.0) n (%)
same,"ALT increased, grade ≥3",1000 mg QD,0 n (%)
same,"AST increased, all grades",1000 mg QD,0 n (%)
same,"AST increased, grade ≥3",1000 mg QD,0 n (%)
same,"Abdominal pain upper, all grades",1000 mg QD,0 n (%)
same,"Abdominal pain upper, grade ≥3",1000 mg QD,0 n (%)
same,"Asthenia, all grades",1000 mg QD,0 n (%)
same,"Asthenia, grade ≥3",1000 mg QD,0 n (%)
same,"Blood creatinine increased, all grades",1000 mg QD,0 n (%)
same,"Blood creatinine increased, grade ≥3",1000 mg QD,0 n (%)
same,"Constipation, all grades",1000 mg QD,0 n (%)
same,"Constipation, grade ≥3",1000 mg QD,0 n (%)
same,"Decreased appetite, all grades",1000 mg QD,0 n (%)
same,"Decreased appetite, grade ≥3",1000 mg QD,0 n (%)
same,"Dermatitis acneiform, all grades",1000 mg QD,0 n (%)
same,"Dermatitis acneiform, grade ≥3",1000 mg QD,0 n (%)
same,"Diarrhoea, all grades",1000 mg QD,4 (100) n (%)
same,"Diarrhoea, grade ≥3",1000 mg QD,0 n (%)
same,"Dry skin, all grades",1000 mg QD,1 (25.0) n (%)
same,"Dry skin, grade ≥3",1000 mg QD,0 n (%)
same,"Fatigue, all grades",1000 mg QD,3 (75.0) n (%)
same,"Fatigue, grade ≥3",1000 mg QD,0 n (%)
same,"Hypotension, all grades",1000 mg QD,2 (50.0) n (%)
same,"Hypotension, grade ≥3",1000 mg QD,1 (25.0) n (%)
same,"Nasopharyngitis, all grades",1000 mg QD,1 (25.0) n (%)
same,"Nasopharyngitis, grade ≥3",1000 mg QD,0 n (%)
same,"Nausea, all grades",1000 mg QD,4 (100) n (%)
same,"Nausea, grade ≥3",1000 mg QD,0 n (%)
same,"Neutropenia, all grades",1000 mg QD,0 n (%)
same,"Neutropenia, grade ≥3",1000 mg QD,0 n (%)
same,"Oedema peripheral, all grades",1000 mg QD,0 n (%)
same,"Oedema peripheral, grade ≥3",1000 mg QD,0 n (%)
same,"Patients with ≥1 AE, all grades",1000 mg QD,4 (100) n (%)
same,"Patients with ≥1 AE, grade ≥3",1000 mg QD,2 (50.0) n (%)
same,"Rash, all grades",1000 mg QD,0 n (%)
same,"Rash, grade ≥3",1000 mg QD,0 n (%)
same,"Vomiting, all grades",1000 mg QD,0 n (%)
same,"Vomiting, grade ≥3",1000 mg QD,0 n (%)
